Here are results for 6 compounds from US9067977B2, “Peptides derivatized with A-B-C-D- and their therapeutical use” (Novo Nordisk A/S, priority 2007, dated 2015).

What is called EC50 is the concentration that produces a half-maximal response. A lower EC50 goes with greater potency.

Starred links: 1 amine or outer side, 2 acyl side, 3 side chain; linkers in the order of their positions; H or OH if unused. Non-standard residues stand in square brackets, D forms with d. Residues, ends and D or L forms follow the SMILES beside them. Groups on a side chain read outwards from the residue. *: point of attachment. X1 = O=C(CCCCCCCCCCCCCCCc1nnn[nH]1)NS(=O)(=O)CCCC(=O)*; C20 diacid = O=C(O)CCCCCCCCCCCCCCCCCCC(=O)*; C18 diacid = O=C(O)CCCCCCCCCCCCCCCCC(=O)*; d(βAsp) = O=C(O)[C@@H](CC(=O)[*:2])N[*:1]; γGlu = O=C(O)[C@H](CCC(=O)[*:2])N[*:1]; Desaminohistidyl = O=C(CCc1c[nH]cn1)*; Trx = NC[C@H]1CC[C@H](C(=O)O)CC1; AEEA = NCCOCCOCC(=O)O; Aib = CC(C)(N)C(=O)O; Inp = O=C(O)C1CCNCC1; Bn = c1ccc(C*)cc1; GABA = NCCCC(=O)O

The first data set deals with human serum albumin (HSA) (Homo sapiens, UniProt P02768). Kind of data set: Albumin binding affinity, competition scintillation proximity assay.
Sequence of human serum albumin (HSA) (P02768 25-609): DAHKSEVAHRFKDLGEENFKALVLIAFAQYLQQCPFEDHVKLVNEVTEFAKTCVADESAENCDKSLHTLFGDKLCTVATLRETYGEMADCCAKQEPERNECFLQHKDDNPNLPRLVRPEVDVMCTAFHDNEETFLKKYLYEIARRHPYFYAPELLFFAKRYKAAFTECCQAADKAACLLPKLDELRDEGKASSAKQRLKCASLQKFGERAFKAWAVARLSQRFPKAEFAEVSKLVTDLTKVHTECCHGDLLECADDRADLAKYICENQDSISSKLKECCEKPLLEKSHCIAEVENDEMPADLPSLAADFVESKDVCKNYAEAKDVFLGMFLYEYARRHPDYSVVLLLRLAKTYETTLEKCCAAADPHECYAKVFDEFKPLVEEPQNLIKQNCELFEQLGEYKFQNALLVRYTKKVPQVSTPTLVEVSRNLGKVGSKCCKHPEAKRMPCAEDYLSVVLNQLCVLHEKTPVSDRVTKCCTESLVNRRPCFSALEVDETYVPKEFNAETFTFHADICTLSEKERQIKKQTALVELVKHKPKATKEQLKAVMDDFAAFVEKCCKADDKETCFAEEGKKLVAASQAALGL
Conditions: not given
For the compound `CC[C@H](C)[C@H](NC(=O)[C@H](Cc1ccccc1)NC(=O)[C@H](CCC(=O)O)NC(=O)[C@H](CCCNC(=N)N)NC(=O)[C@H](C)NC(=O)[C@H](C)NC(=O)[C@H](CCC(N)=O)NC(=O)CNC(=O)[C@H](CCC(=O)O)NC(=O)[C@H](CCCCNC(=O)COCCOCCNC(=O)COCCOCCNC(=O)C[C@@H](NC(=O)C1CCN(C(=O)CCCCCCCCCCCCCCCCC(=O)O)CC1)C(=O)O)NC(=O)[C@H](Cc1ccc(O)cc1)NC(=O)[C@H](CO)NC(=O)[C@H](CO)NC(=O)[C@@H](NC(=O)[C@H](CC(=O)O)NC(=O)[C@H](CO)NC(=O)[C@@H](NC(=O)[C@H](Cc1ccccc1)NC(=O)[C@@H](NC(=O)CNC(=O)[C@H](CCC(=O)O)NC(=O)C(C)(C)NC(=O)[C@@H](N)Cc1c[nH]cn1)[C@@H](C)O)[C@@H](C)O)C(C)C)C(=O)N[C@@H](CCC(=O)O)C(=O)N[C@@H](Cc1c[nH]c2ccccc12)C(=O)N[C@@H](CC(C)C)C(=O)N[C@H](C(=O)N[C@@H](CCCCN)C(=O)NCC(=O)N[C@@H](CCCNC(=N)N)C(=O)NCC(N)=O)[C@@H](C)OCc1ccccc1` [Example 8, N-ε^20({2-[2-(2-{2-[2-((R)-3-carboxy-3-{[1-(17-carboxyheptadecanoyl)piperidine-4-carbonyl]amino}propionylamino)ethoxy]ethoxy}acetylamino)ethoxy]ethoxy}acetyl) [Aib^8,Lys^20,Arg^28,Glu^30,Thr(O-benzyl)^33]GLP-1-(7-37)amide] (H-H[Aib]EGTFTSDVSSYK([AEEA-AEEA-d(βAsp)-Inp-C18 diacid])EGQAAREFIEWLT(Bn)KGRG-NH2; N-terminus assumed), the EC50 lay in the range of 300 to 800 nM. The same measure, in the same setting: for `CC[C@H](C)[C@H](NC(=O)[C@H](Cc1ccccc1)NC(=O)[C@H](CCC(=O)O)NC(=O)[C@H](CCCNC(=N)N)NC(=O)[C@H](C)NC(=O)[C@H](C)NC(=O)[C@H](CCC(N)=O)NC(=O)[C@H](CCC(=O)O)NC(=O)[C@H](CCC(=O)O)NC(=O)[C@H](CC(C)C)NC(=O)[C@H](Cc1ccc(O)cc1)NC(=O)[C@H](CO)NC(=O)[C@H](CO)NC(=O)[C@@H](NC(=O)[C@H](CC(=O)O)NC(=O)[C@H](CO)NC(=O)[C@@H](NC(=O)[C@H](Cc1ccccc1)NC(=O)[C@@H](NC(=O)CNC(=O)[C@H](CCC(=O)O)NC(=O)[C@H](C)NC(=O)CCc1c[nH]cn1)[C@@H](C)O)[C@@H](C)O)C(C)C)C(=O)N[C@@H](C)C(=O)N[C@@H](Cc1c[nH]c2ccccc12)C(=O)N[C@@H](CC(C)C)C(=O)N[C@H](C(=O)N[C@@H](CCCNC(=N)N)C(=O)NCC(=O)N[C@@H](CCCNC(=N)N)C(=O)N[C@@H](CCCCNC(=O)COCCOCCNC(=O)COCCOCCNC(=O)CC[C@H](NC(=O)[C@H]1CC[C@H](CNC(=O)CCCCCCCCCCCCCCCCCCC(=O)O)CC1)C(=O)O)C(=O)O)C(C)C` [Example 26, N-epsilon37-[2-(2-{2-[2-(2-{2-[(S)-4-Carboxy-4-({trans-4-[(19-carboxy-nonadecanoylamino)methyl]cyclohexanecarbonyl}amino)butyrylamino]ethoxy}ethoxy)acetylamino]ethoxy}ethoxy)acetyl][DesaminoHis7,Glu22,Arg26,Arg34,Lys37]GLP-1-(7-37)] the value was 800 to 2000 nM.

The same data set, now with this note: human, biotinylated human serum albumin on streptavidin-SPA beads, pH 7.4.
`CC[C@H](C)[C@H](NC(=O)[C@H](Cc1ccccc1)NC(=O)[C@H](CCC(=O)O)NC(=O)[C@H](CCCNC(=N)N)NC(=O)[C@H](C)NC(=O)[C@H](C)NC(=O)[C@H](CCC(N)=O)NC(=O)[C@H](CCC(=O)O)NC(=O)[C@H](CCC(=O)O)NC(=O)[C@H](CC(C)C)NC(=O)[C@H](Cc1ccc(O)cc1)NC(=O)[C@H](CO)NC(=O)[C@H](CO)NC(=O)[C@@H](NC(=O)[C@H](CC(=O)O)NC(=O)[C@H](CO)NC(=O)[C@@H](NC(=O)[C@H](Cc1ccccc1)NC(=O)[C@@H](NC(=O)CNC(=O)[C@H](CCC(=O)O)NC(=O)[C@H](C)NC(=O)CCc1c[nH]cn1)[C@@H](C)O)[C@@H](C)O)C(C)C)C(=O)N[C@@H](C)C(=O)N[C@@H](Cc1c[nH]c2ccccc12)C(=O)N[C@@H](CC(C)C)C(=O)N[C@H](C(=O)N[C@@H](CCCNC(=N)N)C(=O)NCC(=O)N[C@@H](CCCNC(=N)N)C(=O)NCC(=O)N[C@@H](CCCCNC(=O)CC[C@H](NC(=O)COCCOCCNC(=O)CC[C@H](NC(=O)C1CCN(C(=O)CCCCCCCCCCCCCCCCCCC(=O)O)CC1)C(=O)O)C(=O)O)C(=O)O)C(C)C` [Example 57, [DesaminoHis7,Glu22,Arg26,34]-GLP-1 (7-37)-Lys((S)-4-carboxy-4-(2-{2-[2-((S)-4-carboxy-4-{[1-(19-carboxynonadecanoyl)piperidine-4-carbonyl]amino}butyrylamino)ethoxy]ethoxy}acetylamino)butyryl) peptide] (Desaminohistidyl-AEGTFTSDVSSYLEEQAAREFIAWLVRGRGK([γGlu-AEEA-γGlu-Inp-C20 diacid])-OH): the EC50 at 20 h fell in the range of 100 to 150 nM. Same read-out and setting: as for `CC[C@H](C)[C@H](NC(=O)[C@H](Cc1ccccc1)NC(=O)[C@H](CCC(=O)O)NC(=O)[C@H](CCCNC(=N)N)NC(=O)[C@H](C)NC(=O)[C@H](C)NC(=O)[C@H](CCC(N)=O)NC(=O)[C@H](CCC(=O)O)NC(=O)[C@H](CCC(=O)O)NC(=O)[C@H](CC(C)C)NC(=O)[C@H](Cc1ccc(O)cc1)NC(=O)[C@H](CO)NC(=O)[C@H](CO)NC(=O)[C@@H](NC(=O)[C@H](CC(=O)O)NC(=O)[C@H](CO)NC(=O)[C@@H](NC(=O)[C@H](Cc1ccccc1)NC(=O)[C@@H](NC(=O)CNC(=O)[C@H](CCC(=O)O)NC(=O)C(C)(C)NC(=O)[C@@H](N)Cc1c[nH]cn1)[C@@H](C)O)[C@@H](C)O)C(C)C)C(=O)N[C@@H](CCC(=O)O)C(=O)N[C@@H](Cc1c[nH]c2ccccc12)C(=O)N[C@@H](CC(C)C)C(=O)N[C@H](C(=O)N[C@@H](CCCCN)C(=O)NCC(=O)N[C@@H](CCCNC(=N)N)C(=O)N1CCC[C@H]1C(=O)N[C@@H](CCCCNC(=O)COCCOCCNC(=O)CC[C@H](NC(=O)CC[C@H](NC(=O)CCCNC(=O)CCCS(=O)(=O)NC(=O)CCCCCCCCCCCCCCCc1nnn[nH]1)C(=O)O)C(=O)O)C(=O)O)C(C)C` [Example 51, [Aib8,Glu22,Arg26,Glu30,Pro37]GLP-1-(7-37)Lys [2-(2-{2-[4-Carboxy-4-(4-carboxy-4-{4-[4-(16-1H-tetrazol-5-yl-hexadecanoylsulfamoyl)butyrylamino]butyrylamino}butyrylamino)butyrylamino]ethoxy}ethoxy)acetyl]] (H-H[Aib]EGTFTSDVSSYLEEQAAREFIEWLVKGRPK([AEEA-γGlu-γGlu-GABA-X1])-OH), the figure is 150 to 300 nM; as for `CC[C@H](C)[C@H](NC(=O)[C@H](Cc1ccccc1)NC(=O)[C@H](CCC(=O)O)NC(=O)[C@H](CCCCNC(=O)COCCOCCNC(=O)CC[C@H](NC(=O)CC[C@H](NC(=O)CCCCCCCCCCCNC(=O)CCCS(=O)(=O)NC(=O)CCCCCCCCCCCCCCCc1nnn[nH]1)C(=O)O)C(=O)O)NC(=O)[C@H](C)NC(=O)[C@H](C)NC(=O)[C@H](CCC(N)=O)NC(=O)CNC(=O)[C@H](CCC(=O)O)NC(=O)[C@H](CC(C)C)NC(=O)[C@H](Cc1ccc(O)cc1)NC(=O)[C@H](CO)NC(=O)[C@H](CO)NC(=O)[C@@H](NC(=O)[C@H](CC(=O)O)NC(=O)[C@H](CO)NC(=O)[C@@H](NC(=O)[C@H](Cc1ccccc1)NC(=O)[C@@H](NC(=O)CNC(=O)[C@H](CCC(=O)O)NC(=O)C(C)(C)NC(=O)[C@@H](N)Cc1c[nH]cn1)[C@@H](C)O)[C@@H](C)O)C(C)C)C(=O)N[C@@H](C)C(=O)N[C@@H](Cc1c[nH]c2ccccc12)C(=O)N[C@@H](CC(C)C)C(=O)N[C@H](C(=O)N[C@@H](CCCNC(=N)N)C(=O)O)C(C)C` [Example 37, N-epsilon26-[2-(2-{2-[(S)-4-Carboxy-4-((S)-4-carboxy-4-{12-[4-(16-(1H-tetrazol-5-yl)hexadecanoylsulfamoyl)butyrylamino]-dodecanoylamino}butyrylamino)butyrylamino]ethoxy}ethoxy)acetyl][Aib8,Arg34]GLP-1-(7-34)], 1 to 100 nM; as for `CC[C@H](C)[C@H](NC(=O)[C@H](Cc1ccccc1)NC(=O)[C@H](CCC(=O)O)NC(=O)[C@H](CCCNC(=N)N)NC(=O)[C@H](C)NC(=O)[C@H](C)NC(=O)[C@H](CCC(N)=O)NC(=O)[C@H](CCC(=O)O)NC(=O)[C@H](CCC(=O)O)NC(=O)[C@H](CC(C)C)NC(=O)[C@H](Cc1ccc(O)cc1)NC(=O)[C@H](CO)NC(=O)[C@H](CO)NC(=O)[C@@H](NC(=O)[C@H](CC(=O)O)NC(=O)[C@H](CO)NC(=O)[C@@H](NC(=O)[C@H](Cc1ccccc1)NC(=O)[C@@H](NC(=O)CNC(=O)[C@H](CCC(=O)O)NC(=O)[C@H](C)NC(=O)CCc1c[nH]cn1)[C@@H](C)O)[C@@H](C)O)C(C)C)C(=O)N[C@@H](C)C(=O)N[C@@H](Cc1c[nH]c2ccccc12)C(=O)N[C@@H](CC(C)C)C(=O)N[C@H](C(=O)N[C@@H](CCCNC(=N)N)C(=O)NCC(=O)N[C@@H](CCCNC(=N)N)C(=O)NCC(=O)N[C@@H](CCCCNC(=O)COCCOCCNC(=O)COCCOCCNC(=O)CC[C@H](NC(=O)[C@H]1CC[C@H](CNC(=O)CCCCCCCCCCCCCCCCCCC(=O)O)CC1)C(=O)O)C(N)=O)C(C)C` [Example 27, [DesaminoHis7,Glu22,Arg26,Arg34]GLP-1-(7-37)Lys[2-(2-{2-[2-(2-{2-[4-Carboxy-4-({trans-4-[(19-carboxy-nonadecanoylamino)methyl]cyclohexanecarbonyl}amino)butyrylamino]ethoxy}ethoxy)acetylamino]ethoxy}ethoxy)acetyl]-amide] (Desaminohistidyl-AEGTFTSDVSSYLEEQAAREFIAWLVRGRGK([AEEA-AEEA-γGlu-Trx-C20 diacid])-NH2), 800 to 2000 nM.
